Data as given in publication PMC2984425, “Safety and pharmacokinetics of novel selective vascular endothelial growth factor receptor-2 inhibitor YN968D1 in patients with advanced malignancies” (BMC Cancer, 2010).
Where two headings read alike, the source gives them in different places.

Columns and labels:
[1] = Plasma pharmacokinetics after single and multiple oral doses (LC-MS/MS, non-compartmental analysis); type: in vivo, human; conditions: for Cmax / half-life / AUC(0-t) / Tmax: human, plasma; for AUC(0-t): read-out: AUC0-24, geometric mean; for Tmax: read-out: tmax, median
Protocol: The phase I study was designed in accordance with the Chinese State Food and Drug Administration (SFDA) recommendations (Guidance for Industry, 2005). PK evaluations were to be performed for single-dosing and multiple-dosing of which the dose levels were determined after completion of dose-escalation. Three dose levels (low, intermediate and high dose) for single-dosing and one dose level (the recommended dose for phase II) for multiple-dosing study, between 8 to 12 participants for each dose levels, were required to meet the SFDA guidance. A cross-over design to evaluate the effects of food intake was incorporated into the single-dosing assessment, also meeting the SFDA requirement, but data will be presented separately. […] Whole blood samples (1 ml) were collected at 0 (predose), 0.5, 1, 2, 3, 4, 6, 8, 12, 24, 32, and 48 hours for single-dosing evaluation and 0, 0.5, 1, 2, 3, 4, 6, 8, 12, and 24 hours (before the next dose) on days 1, 6, 28, and 56 for multiple-dosing evaluation. After the last dose on day 56, two additional samples were collected at 32 and 48 hours for multiple-dosing assessment. Plasma was collected from the blood samples following centrifugation, and stored at -80°C until analysis. […] The PK parameters, including area under the plasma concentration-time curve (AUC), maximum plasma concentration (Cmax), time to maximum concentration (tmax), and elimination half-life (t1/2) were determined by non-compartmental analysis using InnaPhase Kinetica 2000™ (InnaPhase Corp., Philadelphia, PA, USA). The linear-logarithmic trapezoidal method was used to calculate the AUC, and t1/2 λz was calculated by linear regression of the terminal slope of the logarithmic plasma concentration-time profile.

[2] = tested on: dogs; conditions: previously established; cited from earlier work
[3] = tested on: VEGFR-2; conditions: no reference given; read-out: IC50, inhibitory effect on VEGFR-2; cited from earlier work
[4] = po, 500 mg, single oral dose 500 mg, n = 8
[5] = po, 750 mg, multiple oral dose of 750 mg, Day 1, n = 11
[6] = po, 750 mg, multiple oral dose of 750 mg, Day 6, n = 11
[7] = po, 750 mg, multiple oral dose of 750 mg, Day 28, n = 11
[8] = po, 750 mg, multiple oral dose of 750 mg, Day 56, n = 11
[9] = po, 750 mg, single oral dose 750 mg, n = 12
[10] = po, 850 mg, single oral dose 850 mg, n = 8

Structure (SMILES): N#CC1(c2ccc(NC(=O)c3cccnc3NCc3ccncc3)cc2)CCCC1 [apatinib]
- time to steady-state conditions ([1]; 750 mg once daily, multiple dosing): ≤ 6 days
- Cmax ([1]; oral, 750 mg, after a single dose of 750 mg, read-out: Cmax values, variation between patients): 926 to 4620 ng/mL
- half-life ([1]; oral, constant over the dose levels 500-850 mg, read-out: elimination half-life of the terminal phase (t1/2 λz) (converted)): 9 h
- AUC(0-t) [1, 4]: 11300 ng·h/mL
- Cmax ([1]; po, 500 mg, single oral dose 500 mg, n = 8, read-out: Cmax, geometric mean): 1520 ng/mL
- half-life ([1]; po, 500 mg, single oral dose 500 mg, n = 8, read-out: t1/2λz, mean (converted)): 8.1 h
- Tmax [1, 4]: 3.5 h
- AUC(0-t) [1, 5]: 19400 ng·h/mL
- Cmax ([1]; po, 750 mg, multiple oral dose of 750 mg, Day 1, n = 11, read-out: Cmax, geometric mean): 2420 ng/mL
- half-life ([1]; po, 750 mg, multiple oral dose of 750 mg, Day 1, n = 11, read-out: t1/2λz, mean (converted)): 8.9 h
- Tmax [1, 5]: 3 h
- AUC(0-t) [1, 6]: 25400 ng·h/mL
- Cmax ([1]; po, 750 mg, multiple oral dose of 750 mg, Day 6, n = 11, read-out: Cmax, geometric mean): 2550 ng/mL
- half-life ([1]; po, 750 mg, multiple oral dose of 750 mg, Day 6, n = 11, read-out: t1/2λz, mean (converted)): 11 h
- Tmax [1, 6]: 4 h
- AUC(0-t) [1, 7]: 19900 ng·h/mL
- Cmax ([1]; po, 750 mg, multiple oral dose of 750 mg, Day 28, n = 11, read-out: Cmax, geometric mean): 2210 ng/mL
- half-life ([1]; po, 750 mg, multiple oral dose of 750 mg, Day 28, n = 11, read-out: t1/2λz, mean (converted)): 11.3 h
- Tmax [1, 7]: 4 h
- AUC(0-t) [1, 8]: 15600 ng·h/mL
- Cmax ([1]; po, 750 mg, multiple oral dose of 750 mg, Day 56, n = 11, read-out: Cmax, geometric mean): 1850 ng/mL
- half-life ([1]; po, 750 mg, multiple oral dose of 750 mg, Day 56, n = 11, read-out: t1/2λz, mean (converted)): 8.3 h
- Tmax [1, 8]: 3 h
- AUC(0-t) [1, 9]: 18200 ng·h/mL
- Cmax ([1]; po, 750 mg, single oral dose 750 mg, n = 12, read-out: Cmax, geometric mean): 2380 ng/mL
- half-life ([1]; po, 750 mg, single oral dose 750 mg, n = 12, read-out: t1/2λz, mean (converted)): 9 h
- Tmax [1, 9]: 3 h
- AUC(0-t) [1, 10]: 22000 ng·h/mL
- Cmax ([1]; po, 850 mg, single oral dose 850 mg, n = 8, read-out: Cmax, geometric mean): 2830 ng/mL
- half-life ([1]; po, 850 mg, single oral dose 850 mg, n = 8, read-out: t1/2λz, mean (converted)): 9.1 h
- Tmax [1, 10]: 4 h
- maximum-tolerated dose (MTD) in dogs [2]: above 30 mg/kg
- IC50 [3]: 2.43 nM
